Measurements taken from US20260091020A1, “TREATMENT OF ACUTE CANNABINOID OVERDOSE” (Anebulo Pharmaceuticals, Inc., priority 2022, published 2026).

Tests used:
Format in all cases: cell-based
CB2 [CNR2] [1] = molecular target: T1, CB2 [CNR2] (Homo sapiens, UniProt P34972); assay: PathHunter GPCR Biosensor cAMP assay, CNR2 antagonist mode; settings: Gi cAMP, 25 μM Forskolin; EC80 0.0048 μM CP55940
Description: (§1) Compounds 2 and 3 were evaluated for activity against CB1 [CNR1] and CB2 [CNR2], both as agonists or as antagonists using the PathHunter GPCR Biosensor (Eurofins Discovery X, Fremont CA). For agonist assays, data was normalized to the maximal and minimal response observed in the presence of control ligand and vehicle. For antagonist assays, data was normalized to the maximal and minimal response observed in the presence of EC80 ligand and vehicle. The following EC80 concentrations were used: CNR1 cAMP: 0.0012 μM CP55940; CNR2 cAMP: 0.0048 μM CP55940. For Gi cAMP assays, the following forskolin concentration was used: CNR1 cAMP: 20 μM Forskolin; CNR2 cAMP: 25 μM Forskolin.

CB1 [CNR1] [2] = molecular target: T2, CB1 [CNR1] (Homo sapiens, UniProt P21554); assay: PathHunter GPCR Biosensor cAMP assay, CNR1 agonist mode; settings: Gi cAMP, 20 μM Forskolin
Description: as §1

CB2 [CNR2] [3] = molecular target: T1, CB2 [CNR2]; assay: PathHunter GPCR Biosensor cAMP assay, CNR2 agonist mode; settings: Gi cAMP, 25 μM Forskolin
Description: as §1

CB1 [CNR1] [4] = molecular target: T2, CB1 [CNR1]; assay: PathHunter GPCR Biosensor cAMP assay, CNR1 antagonist mode; settings: for IC50: Gi cAMP, 20 μM Forskolin, EC80 0.0012 μM CP55940; for CB1 vs CB2 selectivity and mode of action (in words): conclusion from Table 7
Description: as §1

T1 sequence (P34972 whole entry): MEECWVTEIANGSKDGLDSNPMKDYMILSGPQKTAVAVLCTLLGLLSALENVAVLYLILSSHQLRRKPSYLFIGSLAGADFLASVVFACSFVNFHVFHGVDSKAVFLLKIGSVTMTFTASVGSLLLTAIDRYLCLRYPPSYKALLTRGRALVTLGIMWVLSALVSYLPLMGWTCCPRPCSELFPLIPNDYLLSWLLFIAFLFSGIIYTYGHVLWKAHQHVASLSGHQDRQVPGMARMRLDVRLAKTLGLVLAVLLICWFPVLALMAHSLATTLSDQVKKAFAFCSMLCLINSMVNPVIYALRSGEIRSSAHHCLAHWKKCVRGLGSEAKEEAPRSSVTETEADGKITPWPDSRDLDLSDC
T2 sequence (P21554 whole entry): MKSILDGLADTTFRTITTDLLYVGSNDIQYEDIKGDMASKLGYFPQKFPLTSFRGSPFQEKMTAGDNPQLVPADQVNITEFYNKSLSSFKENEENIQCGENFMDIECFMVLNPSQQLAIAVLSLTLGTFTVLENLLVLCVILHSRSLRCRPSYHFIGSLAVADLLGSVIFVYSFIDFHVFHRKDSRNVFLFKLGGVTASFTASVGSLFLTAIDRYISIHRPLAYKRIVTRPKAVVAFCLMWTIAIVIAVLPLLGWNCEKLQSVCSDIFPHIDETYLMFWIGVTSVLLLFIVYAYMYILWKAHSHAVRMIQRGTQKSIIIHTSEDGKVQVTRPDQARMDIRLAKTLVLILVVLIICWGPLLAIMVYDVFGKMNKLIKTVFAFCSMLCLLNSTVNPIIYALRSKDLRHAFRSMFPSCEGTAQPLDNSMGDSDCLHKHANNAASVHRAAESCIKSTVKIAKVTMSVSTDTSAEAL

IC50 (CB2 [CNR2] [1])	EC50 (CB1 [CNR1] [2])	EC50 (CB2 [CNR2] [3])	IC50 (CB1 [CNR1] [4])	CB1 vs CB2 selectivity and mode of action (in words) (CB1 [CNR1] [4])	Structure (SMILES)
> 1000 nM	> 1000 nM	> 1000 nM	45.6 nM	selective CB1 antagonists	CC(C)(CO)NC(=O)N1CC(OC(c2ccc(Cl)cc2)c2ccccc2C(F)(F)F)C1 (stereo not shown) [Compound 2, 3-((4-chlorophenyl)(2-(trifluoromethyl)phenyl)methoxy)-N-(1-hydroxy-2-methylpropan-2-yl)azetidine-1-carboxamide]
> 1000 nM	> 1000 nM	> 1000 nM	383 nM	selective CB1 antagonists	CC(C)(NC(=O)N1CC(OC(c2ccc(Cl)cc2)c2ccccc2C(F)(F)F)C1)C(=O)O (stereo not shown) [Compound 3, 2-(3-((4-chlorophenyl)(2-(trifluoromethyl)phenyl)methoxy)azetidine-1-carboxamido)-2-methylpropanoic acid]
